Key:
[1] = Table 4; cited from earlier work
[2] = Proportion of perfume extracted from esterquat aggregates to polymeric material fibers (dosing by HPLC); assay type: physicochemical; settings: 16 hours
Experimental: (§1) The capsules were then reformulated with a copolymer of polyether and polyurethane-polyurea (commercially available as Lycra) polymeric fiber material. […] The containers were shacked for 16 hours to allow the systems to equilibrate. The polymeric material was then removed, and the esterquat was tested for perfume molecule content (via dosing by HPLC).

[3] = assay type: physicochemical
Experimental: (§2) Polystyrene cross-linked with divinyl benzene was explored as the polymeric material. The partition coefficient of perfume molecules between such cross-linked polystyrene coated with an aminoplast shell (commercially available as Serdolit III) and esterquat was evaluated.

[4] = assay type: physicochemical; remark: listed apart in the source
Experimental: as §1, §2

[5] = 1.0 g polymeric material in 100 g softener (3.6% esterquat, 0.38% perfume)
[6] = 3.1 g polymeric material in 100 g softener (3.6% esterquat, 0.38% perfume)
[7] = 5.0 g polymeric material in 100 g softener (3.6% esterquat, 0.38% perfume)

SMILES | Log P [1] | proportion of perfume absorbed by the polymeric material [2, 5] | proportion of perfume absorbed by the polymeric material [2, 6] | proportion of perfume absorbed by the polymeric material [2, 7] | Partition Coefficient of Polystyrene Material [3] | Partition Coefficient of Copolymer of polyether and polyurethane [4]
C=CC(C)(O)CCC=C(C)C (stereo not shown) [Linalool, linalool] | 2.43 | – | – | – | – | –
CC(CCO)CCc1ccccc1 (stereo not shown) [Phenyl Hexanol, phenyl hexanol] | – | 0.26 | 0.51 | 0.60 | – | –
CCCCCCOC(=O)c1ccccc1O [Hexyl Salicylate, hexyl salicylate] | 5.26 | 0.34 | 0.63 | 0.69 | 6.7 | 1.4
C=CCc1ccc(O)c(OC)c1 [Eugenol, eugenol] | – | 0.24 | 0.45 | 0.57 | 6.7 | 1.0
CC(C)=CCC/C(C)=C\CO [Nerol, nerol] | 2.65 | – | – | – | – | –

— patent publication US8022029B2, “Fabric softening compositions comprising polymeric materials” (priority 2007, dated 2011)
